Results published in patent US20240000777A1, “USE OF AN ERK INHIBITOR FOR THE TREATMENT OF MYELOFIBROSIS” (Novartis AG, priority 2020, published 2024).

Key:
[1] = test system: JAK2V617F PV/MF mouse model; assay type: in vivo; conditions: oral, 14 consecutive days, ruxolitinib 60 mg/kg BID, Compound A 75 mg/kg QD
[2] = test system: Jak2V617F Erk1-/- Erk2 fl/fl Mx-Cre mice; assay: Genetic deletion of ERK1/2 plus ruxolitinib in Jak2V617F MPN mouse model; assay type: in vivo; conditions: ruxolitinib for 2 weeks combined with ERK1/2 deletion
From the text: Jak2V617F Mx-Cre mouse was crossed with Erk1−/− Erk2 fl/fl Mx-Cre mice to genetically delete ERK1/2 to obtain Jak2V617F Erk1−/− Erk2 fl/fl Mx-Cre offspring.

| SMILES | polycythemia [1] | elevated hematocrit ([1]; FIG. 3A) | splenomegaly ([1]; FIG. 3B) | normalizing red blood cell count ([2]; FIG. 7B) | reducing the mutant clone ([2]; versus single interventions, FIG. 7A) |
| --- | --- | --- | --- | --- | --- |
| CNC[C@@H](NC(=O)c1ccc(-c2nc([C@H]3CC[C@H](O)[C@@H](F)C3)cnc2N)cc1F)c1cc(F)cc(Br)c1 [Compound A, 4-(3-amino-6-((1S,3S,4S)-3-fluoro-4-hydroxycyclohexyl)pyrazin-2-yl)-N—((S)-1-(3-bromo-5-fluorophenyl)-2-(methylamino)ethyl)-2-fluorobenzamide] | significantly normalizes | significantly normalizes | significantly normalizes |  |  |
| N#CC[C@H](C1CCCC1)n1cc(-c2ncnc3[nH]ccc23)cn1 [ruxolitinib, (R)-3-(4-(7H-pyrrolo[2,3-d]pyrimidin-4-yl)-1H-pyrazol-1-yl)-3-cyclopentylpropanenitrile] |  |  |  | more effective | more effective |
